The source of these data is ChEMBL document CHEMBL1201862, “PubChem BioAssay data set” (2004).

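Method: 48-hour compound exposure of cells in 96-well plates, five concentrations, linear interpolation of endpoints. Here, GI50 denotes the concentration required for 50% inhibition of growth.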 Active and inactive are the calls of the source. No stated cut-off is given here; in the data, active = GI50 up to about 1.1 µM and inactive = higher.

Test systems include A549; TK-10; HL-60; U-251; IGROV-1; SNB-19; MCF7; OVCAR-4; NCI/ADR-RES; CCRF-CEM; MDA-N; NCI-H522; MDA-MB-435; EKVX; M14; SK-MEL-28; HCC 2998; MOLT-4; SNB-75; LOX IMVI.
What all share (test): NCI anticancer screen, dose series, 48 h

For `CCOC(=O)CCc1c(C)c2ccc(O)cc2oc1=O`, the GI50 in the test with A549, in the test with TK-10, in the test with HL-60, in the test with U-251, in the test on IGROV-1 and in the test on SNB-19 was > 100 µM (inactive) each time. Also, the GI50 with MCF7, in the test on OVCAR-4, in the test with NCI/ADR-RES, with CCRF-CEM, in the test with MDA-N and in the test with NCI-H522 was > 100 µM (inactive) throughout. For the same molecule, the GI50 with MDA-MB-435, in the test on EKVX, in the test on M14, in the test with SK-MEL-28, in the test on HCC 2998 and in the test with MOLT-4 was > 100 µM (inactive) each time. Further, the GI50 with SNB-75 and in the test on LOX IMVI was > 100 µM (inactive) throughout.

Take `COc1ccc2[nH]c(C(=O)N3CC(CCl)c4ccc([N+](=O)[O-])cc43)cc2c1` (stereo unspecified): the GI50 in the test on A549 was > 100 µM (inactive); in the test on TK-10, > 100 µM (inactive); with HL-60, > 100 µM (inactive); with U-251 it was > 100 µM (inactive); with IGROV-1 it was 64.1 µM (inactive); in the test with SNB-19, > 100 µM (inactive). Besides, the GI50 in the test on MCF7 was 6.41 µM (inactive); with OVCAR-4 it was > 64.4 µM (inactive); in the test with NCI/ADR-RES, > 100 µM (inactive); in the test with CCRF-CEM it was > 100 µM (inactive); with MDA-N, > 100 µM (inactive); in the test with NCI-H522 it was 75 µM (inactive). The GI50 was > 100 µM (inactive) with MDA-MB-435; 54.1 µM (inactive) in the test with EKVX; > 100 µM (inactive) with M14; > 100 µM (inactive) in the test on SK-MEL-28; > 100 µM (inactive) in the test on HCC 2998; > 100 µM (inactive) in the test on MOLT-4. The GI50 in the test with SNB-75 is > 37.7 µM (inactive); in the test on LOX IMVI, > 100 µM (inactive).

`CC(C)/C(Cl)=N/OC(NC(=O)Nc1ccc(Cl)c(Cl)c1)(C(F)(F)F)C(F)(F)F`: the GI50 with A549 was 23.2 µM (inactive); with TK-10 it was 17.4 µM (inactive); with HL-60 it was 2.54 µM (inactive); with U-251, 17.3 µM (inactive); in the test on IGROV-1, 16.2 µM (inactive); in the test with SNB-19, 20.2 µM (inactive). The GI50 in the test with MCF7 is 19.4 µM (inactive); with OVCAR-4 it was 13 µM (inactive); in the test on NCI/ADR-RES it was 14.6 µM (inactive); in the test on CCRF-CEM, 2.16 µM (inactive); in the test on MDA-N it was 16.4 µM (inactive); in the test on NCI-H522 it was 1.69 µM (inactive). Further, the GI50 was 16.4 µM (inactive) in the test with MDA-MB-435; 19.4 µM (inactive) with EKVX; 5.65 µM (inactive) with M14; 19.2 µM (inactive) in the test on SK-MEL-28; 20.1 µM (inactive) in the test with HCC 2998; 3.2 µM (inactive) in the test with MOLT-4. Also, the GI50 in the test on SNB-75 was 16.9 µM (inactive); in the test on LOX IMVI, 4.51 µM (inactive).

Consider `COCN1C(=O)[C@@H]2CCCN2C(=O)c2ccc(Cl)cc21`, for which the GI50 with A549, in the test with TK-10, in the test on HL-60, in the test with U-251, with IGROV-1 and with SNB-19 was > 100 µM (inactive) each time. Also, the GI50 in the test on MCF7, with OVCAR-4, in the test with NCI/ADR-RES, in the test on MDA-N, in the test with NCI-H522 and in the test with MDA-MB-435 was > 100 µM (inactive) throughout. The GI50 in the test with EKVX, in the test on M14, in the test on SK-MEL-28, in the test on HCC 2998, with MOLT-4 and with SNB-75 was > 100 µM (inactive) in each case. Moreover, the GI50 in the test on LOX IMVI was > 100 µM (inactive).

On to `COc1ccc(C2C=C(c3ccc4c(c3)OCO4)Oc3c2c(=O)oc2ccccc32)cc1OC` (stereo unspecified), for which the GI50 in the test on A549 is 1.05 µM (active); in the test on HL-60, 0.248 µM (active); with U-251, 0.413 µM (active); in the test on IGROV-1, 0.634 µM (active); with SNB-19, 0.422 µM (active); with MCF7, 0.434 µM (active). Moreover, the GI50 in the test on OVCAR-4 was > 100 µM (inactive); with NCI/ADR-RES it was 0.543 µM (active); in the test with CCRF-CEM it was 0.406 µM (active); in the test with MDA-N, 0.15 µM (active); with NCI-H522 it was 0.303 µM (active); in the test on MDA-MB-435, 0.152 µM (active). The GI50 is 16.5 µM (inactive) in the test on EKVX; 0.502 µM (active) in the test with M14; > 93.1 µM (inactive) in the test on SK-MEL-28; 0.506 µM (active) in the test on HCC 2998; 0.968 µM (active) in the test on MOLT-4; 0.344 µM (active) in the test on SNB-75. Also, in the test with LOX IMVI, the GI50 is 0.593 µM (active).

Regarding `C=CCC1(O)c2cccc(O)c2C(=O)c2cccc(O)c21` (stereo unspecified), the GI50 in the test with A549 is 15.8 µM (inactive); in the test with TK-10 it was 23.5 µM (inactive); in the test with HL-60, 11.7 µM (inactive); in the test on U-251 it was 11.9 µM (inactive); with IGROV-1, 23.6 µM (inactive); in the test with MCF7, 19.6 µM (inactive). Besides, the GI50 with OVCAR-4 was 29.2 µM (inactive); in the test on NCI/ADR-RES, 11.2 µM (inactive); in the test with MDA-N it was 8.22 µM (inactive); with NCI-H522, 9.86 µM (inactive); in the test on MDA-MB-435 it was 9.38 µM (inactive); in the test on EKVX, 17.4 µM (inactive). Moreover, the GI50 is 16.2 µM (inactive) in the test with M14; 20.5 µM (inactive) in the test on SK-MEL-28; 11 µM (inactive) in the test with HCC 2998; 11.3 µM (inactive) in the test on MOLT-4; 13.2 µM (inactive) in the test on SNB-75; 16.3 µM (inactive) in the test on LOX IMVI.

As for `O=C(O)c1ccc(N2C=[N+]3C(=Nc4ccccc43)C2)cc1`, the GI50 in the test on A549, with TK-10, in the test with HL-60, in the test with U-251, in the test with IGROV-1 and in the test on SNB-19 was > 100 µM (inactive) each time. The GI50 in the test with MCF7, with OVCAR-4, with NCI/ADR-RES, with CCRF-CEM, with MDA-N and in the test on NCI-H522 was > 100 µM (inactive) throughout. Further, the GI50 is > 100 µM (inactive) with MDA-MB-435; > 100 µM (inactive) with EKVX; > 100 µM (inactive) in the test with M14; > 100 µM (inactive) with SK-MEL-28; > 100 µM (inactive) with HCC 2998; 62.7 µM (inactive) in the test with SNB-75. In the test on LOX IMVI, the GI50 was > 100 µM (inactive).

Take `COC1CN(C)/C(=N\c2cccc3ccccc23)S1` (stereo unspecified): the GI50 with A549, in the test with TK-10, in the test with HL-60, with U-251, with IGROV-1 and in the test with SNB-19 was > 10 µM (inactive) in each case. In addition, the GI50 in the test on MCF7, with OVCAR-4, in the test on NCI/ADR-RES, in the test with CCRF-CEM, with MDA-N and with NCI-H522 was > 10 µM (inactive) in each case. The GI50 in the test on MDA-MB-435, with M14, in the test with SK-MEL-28, in the test with HCC 2998, with MOLT-4 and with SNB-75 was > 10 µM (inactive) each time. Also, the GI50 with LOX IMVI was > 10 µM (inactive).

In the case of `CCCCCCOC(=O)/C=C/[C@]1(CO)C/C(=C/CC(C(C)C)C(C)C)C(=O)O1`, the GI50 in the test on A549 is 2.99 µM (inactive); in the test with TK-10, 1.77 µM (inactive); with HL-60, 2.7 µM (inactive); in the test on IGROV-1, 15.1 µM (inactive); with SNB-19, 10.5 µM (inactive); in the test with MCF7 it was 16 µM (inactive). Besides, the GI50 in the test with OVCAR-4 is 19.1 µM (inactive); with NCI/ADR-RES, 13.9 µM (inactive); in the test with MDA-N, 1.39 µM (inactive); with NCI-H522 it was 12.3 µM (inactive); in the test on MDA-MB-435, 0.738 µM (active); in the test on EKVX, 1.28 µM (inactive). Moreover, the GI50 in the test on M14 is 12.1 µM (inactive); with SK-MEL-28, 10.4 µM (inactive); in the test on HCC 2998 it was 2.2 µM (inactive); in the test with MOLT-4 it was 1.58 µM (inactive); with SNB-75, 14.2 µM (inactive); with LOX IMVI, 10.6 µM (inactive).

With `CC(CCC(=O)O)[C@H]1CCC2[C@H]3C(CC(=O)[C@@]21C)[C@@]1(C)CCC(O)C[C@H]1C[C@@H]3O` (stereo partly specified), the GI50 with A549, with HL-60, in the test with U-251, in the test on IGROV-1, with SNB-19 and in the test with MCF7 was > 100 µM (inactive) each time. For the same molecule, the GI50 in the test on OVCAR-4, in the test with NCI/ADR-RES, with CCRF-CEM, in the test on MDA-N, in the test on NCI-H522 and with MDA-MB-435 was > 100 µM (inactive) throughout. Also, the GI50 in the test with EKVX, in the test on M14, with SK-MEL-28, in the test on HCC 2998, in the test with MOLT-4 and in the test with SNB-75 was > 100 µM (inactive) in each case. Further, the GI50 with LOX IMVI was > 100 µM (inactive).
